What was measured:
barnyardgrass [1] = experiment: Test C preemergence; assay type: in vivo, Echinochloa crusgalli; conditions: 0 to 100 scale (0 no effect, 100 complete control)
Method in brief: (§1)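 Seeds in loam–sand blend received preemergence directed soil spray of test chemicals in non-phytotoxic solvent with surfactant; postemergence treatment was applied at one- to two-leaf stage (2–10 cm). After 10 days in greenhouse, injury rated visually versus untreated controls, 0 (no effect) to 100 (complete control).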

blackgrass [2] = experiment: Test C preemergence; assay type: in vivo, Alopecurus myosuroides; conditions: 0 to 100 scale (0 no effect, 100 complete control)
Method in brief: as §1

corn [3] = experiment: Test C preemergence; assay type: in vivo, Zea mays; conditions: 0 to 100 scale (0 no effect, 100 complete control)
Method in brief: as §1

green foxtail [4] = experiment: Test C preemergence; assay type: in vivo, Setaria viridis; conditions: 0 to 100 scale (0 no effect, 100 complete control)
Method in brief: as §1

kochia [5] = experiment: Test C preemergence; assay type: in vivo, Bassia scoparia; conditions: 0 to 100 scale (0 no effect, 100 complete control)
Method in brief: as §1

oat, wild [6] = experiment: Test C preemergence; assay type: in vivo, Avena fatua; conditions: 0 to 100 scale (0 no effect, 100 complete control)
Method in brief: as §1

pigweed, palmer [7] = experiment: Test C preemergence; assay type: in vivo, Amaranthus palmeri; conditions: 0 to 100 scale (0 no effect, 100 complete control)
Method in brief: as §1

ragweed [8] = experiment: Test C preemergence; assay type: in vivo, Ambrosia artemisiifolia; conditions: 0 to 100 scale (0 no effect, 100 complete control)
Method in brief: as §1

ryegrass, Italian [9] = experiment: Test C preemergence; assay type: in vivo, Lolium multiflorum; conditions: 0 to 100 scale (0 no effect, 100 complete control)
Method in brief: as §1

soybean [10] = experiment: Test C preemergence; assay type: in vivo, Glycine max; conditions: 0 to 100 scale (0 no effect, 100 complete control)
Method in brief: as §1

wheat [11] = experiment: Test C preemergence; assay type: in vivo, Triticum aestivum; conditions: 0 to 100 scale (0 no effect, 100 complete control)
Method in brief: as §1

barnyardgrass [12] = experiment: Test C postemergence; assay type: in vivo, Echinochloa crusgalli; conditions: 10 days
Method in brief: as §1

blackgrass [13] = experiment: Test C postemergence; assay type: in vivo, Alopecurus myosuroides; conditions: 10 days
Method in brief: as §1

corn [14] = experiment: Test C postemergence; assay type: in vivo, Zea mays; conditions: 10 days
Method in brief: as §1

green foxtail [15] = experiment: Test C postemergence; assay type: in vivo, Setaria viridis; conditions: 10 days
Method in brief: as §1

kochia [16] = experiment: Test C postemergence; assay type: in vivo, Bassia scoparia; conditions: 10 days
Method in brief: as §1

oat, wild [17] = experiment: Test C postemergence; assay type: in vivo, Avena fatua; conditions: 10 days
Method in brief: as §1

pigweed, palmer [18] = experiment: Test C postemergence; assay type: in vivo, Amaranthus palmeri; conditions: 10 days
Method in brief: as §1

ragweed [19] = experiment: Test C postemergence; assay type: in vivo, Ambrosia artemisiifolia; conditions: 10 days
Method in brief: as §1

ryegrass, Italian [20] = experiment: Test C postemergence; assay type: in vivo, Lolium multiflorum; conditions: 125 g ai/ha, postemergence, 10 days; 0 to 100 scale, 0 no effect, 100 complete control
Method in brief: as §1

soybean [21] = experiment: Test C postemergence; assay type: in vivo, Glycine max; conditions: 10 days
Method in brief: as §1

wheat [22] = experiment: Test C postemergence; assay type: in vivo, Triticum aestivum; conditions: 10 days
Method in brief: as §1

galium = experiment: Test C postemergence; assay type: in vivo, Galium aparine; conditions: 10 days
Method in brief: as §1

horseweed = experiment: Test C postemergence; assay type: in vivo, Erigeron canadensis; conditions: 10 days
Method in brief: as §1

barnyardgrass [23] = experiment: Test D flooded paddy test; assay type: in vivo, Echinochloa crus-galli; conditions: 250 g ai/ha, applied to paddy water, visual rating after 13 to 14 days, scale 0 to 100 (0 no effect, 100 complete control)
Method in brief: (§2)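 Seedlings reached the 2-leaf stage, then pots were flooded to 3 cm over the soil surface. Compound was applied into the water, depth was maintained, and plants stayed in the greenhouse 13 to 14 days before visual scoring (0–100) relative to controls.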

ducksalad = experiment: Test D flooded paddy test; assay type: in vivo, Heteranthera limosa; conditions: 250 g ai/ha, applied to paddy water, visual rating after 13 to 14 days, scale 0 to 100 (0 no effect, 100 complete control)
Method in brief: as §2

rice = experiment: Test D flooded paddy test; assay type: in vivo, Oryza sativa; conditions: 250 g ai/ha, applied to paddy water, visual rating after 13 to 14 days, scale 0 to 100 (0 no effect, 100 complete control)
Method in brief: as §2

sedge, umbrella = experiment: Test D flooded paddy test; assay type: in vivo, Cyperus difformis; conditions: 250 g ai/ha, applied to paddy water, visual rating after 13 to 14 days, scale 0 to 100 (0 no effect, 100 complete control)
Method in brief: as §2

[24] = Preemergence, 500 g ai/ha, visual rating after 10 days
[25] = Test C, preemergence, 125 g ai/ha
[26] = 125 g ai/ha, postemergence, 0 to 100 scale, 0 no effect, 100 complete control
[27] = Postemergence, 500 g ai/ha, visual 0 to 100 scale (0 no effect, 100 complete control)

CC(C)c1ncn(-c2ccc(S(=O)(=O)C(F)(F)F)c(C(=O)N3C[C@H](C)Oc4c(Cl)cccc43)c2)n1 [Compound 229]
0: Plant response rating, Barnyardgrass (barnyardgrass [1]; [24]) | Barnyardgrass plant response rating (barnyardgrass [1]; [25]) | Plant response rating, Blackgrass (blackgrass [2]; [24]) | Blackgrass plant response rating (blackgrass [2]; [25]) | Plant response rating, Corn (corn [3]; [24]) | Corn plant response rating (corn [3]; [25]) | Plant response rating, Foxtail, Green (green foxtail [4]; [24]) | Foxtail, Green plant response rating (green foxtail [4]; [25]) | Plant response rating, Kochia (kochia [5]; [24]) | Kochia plant response rating (kochia [5]; [25]) | Plant response rating, Oat, Wild (oat, wild [6]; [24]) | Oat, Wild plant response rating (oat, wild [6]; [25]) | Plant response rating, Pigweed, Palmer (pigweed, palmer [7]; [24]) | Pigweed, Palmer plant response rating (pigweed, palmer [7]; [25]) | Plant response rating, Ragweed (ragweed [8]; [24]) | Ragweed plant response rating (ragweed [8]; [25]) | Ryegrass, Italian plant response rating (ryegrass, Italian [9]; [25]) | Plant response rating, Soybean (soybean [10]; [24]) | Soybean plant response rating (soybean [10]; [25]) | Plant response rating, Wheat (wheat [11]; [24]) | Wheat plant response rating (wheat [11]; [25]) | Plant response rating, Barnyardgrass (barnyardgrass [12]; [26]) | Plant response rating, Barnyardgrass (barnyardgrass [12]; [27]) | Plant response rating, Blackgrass (blackgrass [13]; [26]) | Plant response rating, Blackgrass (blackgrass [13]; [27]) | Plant response rating, Corn (corn [14]; [26]) | Plant response rating, Corn (corn [14]; [27]) | Plant response rating, Foxtail, Green (green foxtail [15]; [26]) | Plant response rating, Foxtail, Green (green foxtail [15]; [27]) | Plant response rating, Kochia (kochia [16]; [26]) | Plant response rating, Kochia (kochia [16]; [27]) | Plant response rating, Oat, Wild (oat, wild [17]; [26]) | Plant response rating, Oat, Wild (oat, wild [17]; [27]) | Plant response rating, Pigweed, Palmer (pigweed, palmer [18]; [26]) | Plant response rating, Pigweed, Palmer (pigweed, palmer [18]; [27]) | Plant response rating, Ragweed (ragweed [19]; [26]) | Plant response rating, Ragweed (ragweed [19]; [27]) | Plant response rating, Ryegrass, Italian (ryegrass, Italian [20]) | Plant response rating, Wheat (wheat [22]; [26]) | Plant response rating, Wheat (wheat [22]; [27]) | Plant response rating, Galium (galium; [26]) | Plant response rating, Galium (galium; [27]) | Plant response rating, Horseweed (horseweed; [26]) | Plant response rating, Horseweed (horseweed; [27]) | Plant response rating, Barnyardgrass (Flood) (barnyardgrass [23]) | Plant response rating, Ducksalad (Flood) (ducksalad) | Plant response rating, Rice (Flood) (rice) | Plant response rating, Sedge, Umbrella (Flood) (sedge, umbrella)
10: Plant response rating, Ryegrass, Italian (ryegrass, Italian [9]; [24])
40: Plant response rating, Soybean (soybean [21]; [26]) | Plant response rating, Soybean (soybean [21]; [27])

Source: patent US20260262643A1, “HERBICIDAL BENZOXAZINES” (FMC CORPORATION, priority 2022, published 2026)
